Where “and” joins values, the source holds several entries; their conditions need not be identical. Equal values may be shown once. Inconclusive results and toxic doses are left out.
System: P388 leukemia ip, CD2F1 mice, survival T/C
Assay: NCI In Vivo Anticancer Drug Screen. Data for tumor model P388 Leukemia (intraperitoneal) in CD2F1 (CDF1) mice
Conditions: endpoint: median survival time, higher = longer survival
Summary of the method: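 Mice carrying the transplanted tumor received test compound or vehicle. Survival was recorded in each group, and the value is the treated-group measurement divided by that of the vehicle-treated control group.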

[1] = dose: 100.0 mg/kg/injection, schedule: Q04DX002 (ip), vehicle: Klucel (hydroxypropylcellulose) (HPC)
[2] = dose: 60.0 mg/kg/injection, schedule: Q01DX005 (ip), vehicle: saline with Tween-80
[3] = dose: 120.0 mg/kg/injection, schedule: Q01DX005 (ip), vehicle: saline with Tween-80
[4] = dose: 240.0 mg/kg/injection, schedule: Q01DX005 (ip), vehicle: saline with Tween-80
[5] = dose: 30.0 mg/kg/injection, schedule: Q01DX005 (ip), vehicle: saline with Tween-80
[6] = dose: 50.0 mg/kg/injection, schedule: Q01DX005 (ip), vehicle: Klucel (hydroxypropylcellulose) (HPC)
[7] = dose: 100.0 mg/kg/injection, schedule: Q01DX005 (ip), vehicle: Klucel (hydroxypropylcellulose) (HPC)
[8] = dose: 200.0 mg/kg/injection, schedule: Q01DX005 (ip), vehicle: Klucel (hydroxypropylcellulose) (HPC)
[9] = dose: 100.0 mg/kg/injection, schedule: Q01DX009 (ip), vehicle: saline with Tween-80
[10] = dose: 200.0 mg/kg/injection, schedule: Q01DX009 (ip), vehicle: saline with Tween-80
[11] = dose: 400.0 mg/kg/injection, schedule: Q01DX009 (ip), vehicle: saline with Tween-80
[12] = dose: 100.0 mg/kg/injection, schedule: Q01DX001 (ip), vehicle: Klucel (hydroxypropylcellulose) (HPC)
[13] = dose: 200.0 mg/kg/injection, schedule: Q01DX001 (ip), vehicle: Klucel (hydroxypropylcellulose) (HPC)
[14] = dose: 6.25 mg/kg/injection, schedule: Q01DX009 (ip), vehicle: distilled water + Tween-80
[15] = dose: 25.0 mg/kg/injection, schedule: Q01DX009 (ip), vehicle: distilled water + Tween-80

O=C1OC(/C=C/c2ccccc2)=NC/1=C\c1ccccc1
T/C (dose: 60.0 mg/kg/injection, schedule: Q01DX005 (ip), vehicle: Klucel + Tween-80): 103 % of control
T/C (dose: 120.0 mg/kg/injection, schedule: Q01DX005 (ip), vehicle: Klucel + Tween-80): 99 % of control
T/C (dose: 240.0 mg/kg/injection, schedule: Q01DX005 (ip), vehicle: Klucel + Tween-80): 97 % of control

CCOC(=O)c1ccc(N=NN2CN3CN(C2)CN(N=Nc2ccc(C(=O)OCC)cc2)C3)cc1
T/C (dose: 25.0 mg/kg/injection, schedule: Q04DX002 (ip), vehicle: Klucel (hydroxypropylcellulose) (HPC)): 99 % of control
T/C (dose: 50.0 mg/kg/injection, schedule: Q04DX002 (ip), vehicle: Klucel (hydroxypropylcellulose) (HPC)): 104 % of control
T/C [1]: 100 % of control and 87 % of control

CCCCCn1c(Cl)c(C=O)c2ccccc21
T/C [1]: 97 % of control
T/C (dose: 200.0 mg/kg/injection, schedule: Q04DX002 (ip), vehicle: Klucel (hydroxypropylcellulose) (HPC)): 98 % of control
T/C (dose: 400.0 mg/kg/injection, schedule: Q04DX002 (ip), vehicle: Klucel (hydroxypropylcellulose) (HPC)): 100 % of control

Cc1ncc(C(O)c2ccc(N(C)C)cc2)n1Cc1ccccc1 (centres undefined)
T/C [2]: 98 % of control
T/C [3]: 95 % of control
T/C [4]: 95 % of control

CSC1=Nc2cccnc2Nc2cscc21
T/C (dose: 15.0 mg/kg/injection, schedule: Q01DX005 (ip), vehicle: saline with Tween-80): 102 % of control
T/C [5]: 98 % of control
T/C [2]: 112 % of control and 94 % of control

CC(C)C1=CC2=C[C@H](O)[C@H]3C(C)(C)CCC[C@]3(C)C2=C(O)C1=O
T/C (dose: 1.25 mg/kg/injection, schedule: Q01DX009 (ip), vehicle: saline with Tween-80): 109 % of control and 91 % of control
T/C (dose: 1.25 mg/kg/injection, schedule: Q01DX009 (ip), vehicle: suspension in saline): 103 % of control
T/C (dose: 1.75 mg/kg/injection, schedule: Q01DX009 (ip), vehicle: saline with Tween-80): 108 % of control
T/C (dose: 2.5 mg/kg/injection, schedule: Q01DX009 (ip), vehicle: saline with Tween-80): 100 % of control and 111 % of control and 123 % of control
T/C (dose: 2.5 mg/kg/injection, schedule: Q01DX009 (ip), vehicle: suspension in saline): 109 % of control
T/C (dose: 5.0 mg/kg/injection, schedule: Q01DX009 (ip), vehicle: saline with Tween-80): 104 % of control and 108 % of control and 111 % of control
T/C (dose: 5.0 mg/kg/injection, schedule: Q01DX009 (ip), vehicle: suspension in saline): 100 % of control
T/C (dose: 10.0 mg/kg/injection, schedule: Q01DX009 (ip), vehicle: saline with Tween-80): 107 % of control and 109 % of control and 113 % of control
T/C (dose: 10.0 mg/kg/injection, schedule: Q01DX009 (ip), vehicle: suspension in saline): 113 % of control
T/C (dose: 20.0 mg/kg/injection, schedule: Q01DX009 (ip), vehicle: suspension in saline): 109 % of control

C(=NCCC[Si]12OCCN(CCO1)CCO2)c1ccccc1
T/C [6]: 105 % of control
T/C [7]: 98 % of control
T/C [8]: 102 % of control

O=C(O)C(CCCCNC(=S)S)NC(=S)S.[Na+].[Zn+2] (centres undefined)
T/C [6]: 95 % of control
T/C [7]: 95 % of control
T/C [8]: 102 % of control

OCCc1nccnn1
T/C (dose: 12.5 mg/kg/injection, schedule: Q04DX003 (ip), vehicle: saline): 104 % of control
T/C (dose: 25.0 mg/kg/injection, schedule: Q04DX003 (ip), vehicle: saline): 107 % of control
T/C (dose: 50.0 mg/kg/injection, schedule: Q04DX003 (ip), vehicle: saline): 104 % of control
T/C (dose: 200.0 mg/kg/injection, schedule: Q04DX003 (ip), vehicle: saline): 87 % of control
T/C (dose: 400.0 mg/kg/injection, schedule: Q04DX003 (ip), vehicle: saline): 86 % of control

COc1ccc(C(=O)N2C(=O)CCC2=O)cc1
T/C (dose: 50.0 mg/kg/injection, schedule: Q01DX009 (ip), vehicle: Klucel (hydroxypropylcellulose) (HPC)): 109 % of control
T/C (dose: 100.0 mg/kg/injection, schedule: Q01DX009 (ip), vehicle: Klucel (hydroxypropylcellulose) (HPC)): 115 % of control
T/C (dose: 100.0 mg/kg/injection, schedule: Q04DX003 (ip), vehicle: Klucel (hydroxypropylcellulose) (HPC)): 113 % of control
T/C (dose: 200.0 mg/kg/injection, schedule: Q04DX003 (ip), vehicle: Klucel (hydroxypropylcellulose) (HPC)): 113 % of control
T/C (dose: 400.0 mg/kg/injection, schedule: Q04DX003 (ip), vehicle: Klucel (hydroxypropylcellulose) (HPC)): 114 % of control

O=C1CCCCCCCCCCC1Br (centres undefined)
T/C [9]: 100 % of control
T/C [10]: 99 % of control
T/C [11]: 105 % of control

C=CCNC(=S)n1cnc(N)n1
T/C [5]: 107 % of control
T/C [2]: 105 % of control and 108 % of control
T/C [3]: 115 % of control and 96 % of control

c1ccc2c3c(ccc2c1)Oc1ccc2ccccc2c1C3CCC1c2c(ccc3ccccc23)Oc2ccc3ccccc3c21
T/C [2]: 96 % of control
T/C [3]: 95 % of control
T/C [4]: 86 % of control

O=S1(=O)Cc2ccccc21
T/C [12]: 92 % of control
T/C [13]: 98 % of control

CC(=O)Oc1cc2c(cc1OC(C)=O)C(=O)c1cc3c(cc1C2=O)OCO3
T/C [2]: 107 % of control
T/C [3]: 120 % of control
T/C [4]: 108 % of control

CC(CCCN(CCCl)CCCl)Nc1ccnc2cc(Cl)ccc12 (centres undefined)
T/C (dose: 0.12 mg/kg/injection, schedule: Q01DX009 (ip), vehicle: saline + alcohol): 100 % of control
T/C (dose: 0.5 mg/kg/injection, schedule: Q01DX009 (ip), vehicle: saline sonified): 155 % of control
T/C (dose: 0.66 mg/kg/injection, schedule: Q01DX009 (ip), vehicle: saline): 159 % of control
T/C (dose: 1.0 mg/kg/injection, schedule: Q01DX009 (ip), vehicle: saline sonified): 155 % of control
T/C (dose: 1.5 mg/kg/injection, schedule: Q01DX009 (ip), vehicle: saline): 159 % of control
T/C (dose: 2.0 mg/kg/injection, schedule: Q01DX009 (ip), vehicle: saline sonified): 105 % of control

CC(=O)On1nnc2ccccc2c1=O
T/C [14]: 97 % of control
T/C (dose: 12.5 mg/kg/injection, schedule: Q01DX009 (ip), vehicle: distilled water + Tween-80): 100 % of control
T/C [15]: 97 % of control

COc1c2c(c3c(c1OC)CN(CC(c1ccccc1)c1ccccc1)CC3)CCC2
T/C (dose: 100.0 mg/kg/injection, schedule: Q04DX002 (ip), vehicle: saline): 101 % of control
T/C (dose: 200.0 mg/kg/injection, schedule: Q04DX002 (ip), vehicle: saline): 103 % of control
T/C (dose: 400.0 mg/kg/injection, schedule: Q04DX002 (ip), vehicle: saline): 103 % of control

Cn1c2ccccc2c2ccc3c(c21)C(=O)C=CC3=O
T/C [15]: 120 % of control

c1cc[n+]2cc3cc4c(cc3cc2c1)OCO4
T/C (dose: 3.13 mg/kg/injection, schedule: Q01DX009 (ip), vehicle: distilled water + Tween-80): 103 % of control and 107 % of control
T/C [14]: 119 % of control and 123 % of control
T/C [15]: 120 % of control and 94 % of control

CC1(CO)C2CCC(CC2)C1CO (centres undefined)
T/C (dose: 50.0 mg/kg/injection, schedule: Q01DX009 (ip), vehicle: saline with Tween-80): 109 % of control
T/C [9]: 100 % of control
T/C [10]: 104 % of control

CC(=O)O.CC(=O)O.CC(=O)O.CC(=O)O.O=C(O)C1C[N-]CC(C(=O)O)C1.O=C(O)C1C[N-]CC(C(=O)O)C1.[Cu+].[Cu+] (centres undefined)
T/C (dose: 3.12 mg/kg/injection, schedule: Q01DX005 (ip), vehicle: suspension in saline): 95 % of control
T/C (dose: 6.25 mg/kg/injection, schedule: Q01DX005 (ip), vehicle: suspension in saline): 99 % of control
T/C (dose: 12.5 mg/kg/injection, schedule: Q01DX005 (ip), vehicle: suspension in saline): 94 % of control

COC(=O)C[CH2][Sn]([CH3])([CH3])[CH2]CC(=O)OC
T/C [6]: 104 % of control
T/C [7]: 100 % of control

Cc1ccc(Cl)c(S(=O)(=O)F)c1
T/C [10]: 104 % of control
T/C [11]: 100 % of control

COc1ccc(C2CC(C)(OC)Oc3cc4c(cc32)OCO4)cc1 (centres undefined)
T/C [12]: 100 % of control
T/C [13]: 94 % of control

CCn1c(Cl)c(/C=N/Nc2ccccc2[N+](=O)[O-])c2cccc(/C=N\Nc3ccccc3[N+](=O)[O-])c21
T/C [12]: 91 % of control
T/C [13]: 90 % of control
T/C (dose: 400.0 mg/kg/injection, schedule: Q01DX001 (ip), vehicle: Klucel (hydroxypropylcellulose) (HPC)): 87 % of control

CC(=O)OC1SCCn2c1nc1ccccc1c2=O (centres undefined)
T/C (dose: 50.0 mg/kg/injection, schedule: Q01DX005 (ip), vehicle: saline with Tween-80): 106 % of control
T/C (dose: 100.0 mg/kg/injection, schedule: Q01DX005 (ip), vehicle: saline with Tween-80): 104 % of control
T/C (dose: 200.0 mg/kg/injection, schedule: Q01DX005 (ip), vehicle: saline with Tween-80): 99 % of control

From PubChem BioAssay AID330 (DTP/NCI, 2004)
